Activity calls are given as the source filed them. The rule behind the calls is not given here.

Experiment [1] has as its system Lipid bilayer. Kind of experiment: Binding affinity to zwitterionic DOPC large unilamellar vesicle assessed as release of calcein at 1 mg/mL measured for 1 min by spectrophotometric analysis relative to control.
The next experiment concerns Staphylococcus aureus. The experiment can be described thus: Antibacterial activity against Staphylococcus aureus ATCC 29213 assessed as cell viability after 24 hrs by resazurin-based microplate assay. Format: functional. The following applies: ATCC 29213, 24 h. On the technique in general: Alamar Blue is a resazurin reagent that responds to reducing activity.
The test system of a further experiment is Escherichia coli. The experiment can be described thus: Antibacterial activity against Escherichia coli ATCC 25922 assessed as growth inhibition assessed as cell viability after 24 hrs by resazurin-based microplate assay. Format: functional. The following applies: ATCC 25922, 24 h.
Experiment [2] deals with Lipid bilayer. The experiment can be described thus: Binding affinity to DOPC/DOPG large unilamellar vesicle assessed as release of calcein at 1 mg/mL measured for 1 min by spectrophotometric analysis.
Another experiment has as its system Enterococcus faecalis. The experiment can be described thus: Antibacterial activity against Enterococcus faecalis ATCC 29212 assessed as growth inhibition assessed as cell viability after 24 hrs by resazurin-based microplate assay. The format is functional. The following applies: ATCC 29212, 24 h.
For another experiment, the system named is Pseudomonas aeruginosa. Kind of experiment: Antibacterial activity against Pseudomonas aeruginosa ATCC 27853 assessed as growth inhibition assessed as cell viability after 24 hrs by resazurin-based microplate assay. Format: functional. The following applies: ATCC 27853, 24 h.
In experiment [3] the test system is Lipid bilayer. Kind of experiment: Binding affinity to DOPG large unilamellar vesicle assessed as release of calcein at 1 mg/mL measured for 1 min by spectrophotometric analysis.

As to `CC(C)[C@@H](CC[C@@H](C)[C@H]1CC[C@H]2[C@@H]3[C@@H](O)C[C@H]4C[C@@H](NCCCNCCCCN)CC[C@]4(C)[C@H]3CC[C@]12C)OS(=O)(=O)O.O=C(O)C(F)(F)F`, the outcome in the experiment with Lipid bilayer [1], in the experiment with Lipid bilayer [2] and in the experiment with Lipid bilayer [3] was inactive. The MIC (usually the lowest concentration that inhibits growth of the organism) amounted to 12 µg/mL in the experiment on Staphylococcus aureus, 12 µg/mL with Escherichia coli, 12 µg/mL in the experiment on Enterococcus faecalis and 24 µg/mL in the experiment with Pseudomonas aeruginosa.
As for `CC(C)[C@@H](CC[C@@H](C)[C@H]1CC[C@H]2[C@@H]3[C@@H](O)C[C@H]4C[C@@H](NCCCNCCCCNCCCN)CC[C@]4(C)[C@H]3CC[C@]12C)OS(=O)(=O)O.O=C(O)C(F)(F)F`, the Activity in the experiment with Lipid bilayer [1] is 50%. Also, the MIC with Staphylococcus aureus stood at 8 µg/mL; with Escherichia coli, 1 µg/mL; in the experiment on Enterococcus faecalis it was 16 µg/mL; with Pseudomonas aeruginosa, 32 µg/mL. For the same molecule, the result in the experiment with Lipid bilayer [2] was inactive. For the same molecule, the result in the experiment with Lipid bilayer [3] was Active.
As to `CC(C)[C@@H](CC[C@@H](C)[C@H]1CC[C@H]2[C@@H]3[C@H](O)C[C@H]4C[C@@H](NCCCNCCCCN)CC[C@]4(C)[C@H]3CC[C@]12C)OS(=O)(=O)O.CC(O)C(=O)O`, in the experiment with Lipid bilayer [1], the Activity is 50%. Also, the minimum inhibitory concentration (MIC) in the experiment on Staphylococcus aureus is 2 µg/mL; in the experiment with Escherichia coli, 8 µg/mL; in the experiment on Enterococcus faecalis it was 2 µg/mL; in the experiment with Pseudomonas aeruginosa it was 4 µg/mL. In addition, the result with Lipid bilayer [2] and with Lipid bilayer [3] was Active.
For the molecule `CC(C)[C@@H](CC[C@@H](C)[C@H]1CC[C@H]2[C@@H]3[C@H](O)C[C@H]4C[C@@H](NCCCNCCCCNCCCN)CC[C@]4(C)[C@H]3CC[C@]12C)OS(=O)(=O)O.Cl`, the Activity in the experiment with Lipid bilayer [1] is 50%. Also, the MIC in the experiment with Staphylococcus aureus is 4 µg/mL; in the experiment with Escherichia coli it was 2 µg/mL; in the experiment on Enterococcus faecalis it was 32 µg/mL; in the experiment with Pseudomonas aeruginosa, 8 µg/mL. The outcome in the experiment with Lipid bilayer [2] and in the experiment on Lipid bilayer [3] was Active.
